Measurements taken from PubChem BioAssay (NCI).
Values joined by “and” are separate entries in the source; they are usually repeats but may differ in a detail not shown here. Equal entries are not always repeated.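 Dose response: 5 concentrations. Exposure: 48 h. Format: 96-well plates. Endpoint: linear interpolation; highest concentration if not reached. Abbreviation: GI50, concentration required for 50% inhibition of growth. The concentration for full growth arrest is given as TGI.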

What was measured:
Test in all cases: growth of human tumour cells (NCI), 48 h
TK-10 renal = test system: TK-10 renal
HOP-62 NSCLC = test system: HOP-62 NSCLC
A549 NSCLC = test system: A549 NSCLC
SNB-19 CNS = test system: SNB-19 CNS
HCT-15 colon = test system: HCT-15 colon
SR leukemia = test system: SR leukemia
SW-620 colon = test system: SW-620 colon
MOLT-4 leukemia = test system: MOLT-4 leukemia
HS 578T breast = test system: HS 578T breast
MDA-MB-231 breast = test system: MDA-MB-231 breast

Structure (SMILES) | TGI (TK-10 renal) | TGI (HOP-62 NSCLC) | TGI (A549 NSCLC) | TGI (SNB-19 CNS) | TGI (HCT-15 colon) | TGI (SR leukemia) | TGI (SW-620 colon) | TGI (MOLT-4 leukemia) | GI50 (TK-10 renal) | GI50 (HOP-62 NSCLC) | GI50 (A549 NSCLC) | GI50 (HS 578T breast) | TGI (HS 578T breast) | GI50 (MOLT-4 leukemia) | GI50 (MDA-MB-231 breast) | TGI (MDA-MB-231 breast) | GI50 (SNB-19 CNS) | GI50 (HCT-15 colon) | GI50 (SW-620 colon) | GI50 (SR leukemia)
CC1(C)C2CCC3(C2)CS(=O)(=O)N2OC231 (stereo unspecified) | 32.9 µM | > 100 µM | > 100 µM | > 100 µM | 30.1 µM | > 100 µM | 32.9 µM |  |  |  |  |  |  |  |  |  |  |  |  | 
O=[N+]([O-])c1nccn1COCCBr | > 100 µM | > 100 µM | > 100 µM | > 100 µM | > 100 µM | > 100 µM | > 100 µM | > 100 µM |  |  |  |  |  |  |  |  |  |  |  | 
Cc1c2ccc(N(C)c3ccnc(Nc4cccc(S(N)(=O)=O)c4)n3)cc2nn1C | > 25 µM | > 25 µM | > 25 µM | > 25 µM | > 25 µM |  | > 25 µM | > 23.6 µM | 10.5 µM | 9.03 µM | 11.9 µM | 6.8 µM | > 25 µM | 8.81 µM | 8.47 µM | > 25 µM | > 22.9 µM | 9.34 µM | 11.7 µM | 
CCN(CC)c1ccc2c(c1)Nc1cc(=C(C#N)C#N)c3ccccc3c1=N2 | > 100 µM | > 100 µM | > 100 µM | > 100 µM |  | > 100 µM | > 100 µM | > 100 µM |  |  |  |  |  |  |  |  |  |  |  | 
O=C1C2Cc3ccccc3CN2C(=O)N1CCN1CCCC1 (stereo unspecified) | > 100 µM | > 100 µM | > 100 µM | > 100 µM | > 100 µM |  | > 100 µM | > 100 µM |  |  |  |  |  |  |  |  |  |  |  | 
Cc1cc2c(=O)c3ccccc3[nH]c2c(C(=O)O)c1C |  | > 100 µM | > 100 µM | > 100 µM | > 100 µM | > 100 µM | > 100 µM | > 100 µM |  |  |  |  |  |  |  |  |  |  |  | 
CCOC(=O)COS(=O)(=O)C(F)(F)F | > 100 µM | > 100 µM | > 100 µM | > 100 µM | 35.1 µM | 49.1 µM |  | > 100 µM |  |  |  |  |  |  |  |  |  |  |  | 
CCOC(=O)C(=O)Nc1c(C(C)C)cccc1C(C)C | > 100 µM | > 100 µM | > 100 µM | > 100 µM | > 100 µM | > 100 µM | > 100 µM | > 100 µM |  |  |  |  |  |  |  |  |  |  |  | 
C[C-](O)O.O/C(=C\[C-](O)c1ccccc1)c1ccccc1.O/C(=C\[C-](O)c1ccccc1)c1ccccc1.[Nd+3] (stereo unspecified) | 94.2 µM | 15.7 µM | 48.9 µM | 50 µM | 20.1 µM |  | > 100 µM | 28.7 µM | 20.9 µM | 3.1 µM | 18.2 µM |  |  | 3.89 µM |  |  | 7.83 µM | 4.96 µM | 6.94 µM | 
C=C(C=O)CCCC(C)[C@@H]1CCC23CC12CCC1[C@@]2(C)CCC(OC(C)=O)C(C)(C)C2CC(OC2OC(COC(C)=O)C(O)C(O)C2O)[C@]13C (stereo partly specified) | 12.5 µM | 14.3 µM | 12.5 µM | 13.2 µM | 7.5 µM |  | 1.44 µM | 3.03 µM |  |  |  |  |  |  |  |  |  |  |  | 
O=C1CCC(O)=C1O | > 100 µM | > 100 µM | > 100 µM | > 100 µM | > 100 µM |  | > 100 µM | > 100 µM |  |  |  |  |  |  |  |  |  |  |  | 
CCOc1ccccc1NC(=O)CCc1nc(=S)[nH][nH]1 | > 100 µM | > 100 µM | > 100 µM | > 100 µM | > 100 µM | > 100 µM | > 100 µM | > 100 µM |  |  |  |  |  |  |  |  |  |  |  | 
CCN1CSC(=S)N(CC)C1 | > 100 µM | 71.1 µM | > 100 µM | > 100 µM | > 100 µM |  | > 100 µM | > 100 µM |  |  |  |  | > 100 µM |  |  | 73.9 µM |  |  |  | 
Cc1cc(=O)oc2cc(O)c(CN(C)CC(=O)O)cc12 | > 100 µM |  | > 100 µM | > 100 µM | > 100 µM | > 100 µM | > 100 µM |  |  |  |  |  | > 100 µM |  |  | > 100 µM |  |  |  | 
Cc1c(Cl)cccc1NC(=O)CC1C(=O)Nc2ccccc2S1(=O)=O (stereo unspecified) | 56.6 µM |  | 33.2 µM | 52.3 µM | 25.7 µM | 30.3 µM | 43.7 µM | 24.3 µM |  |  |  |  |  |  |  |  |  |  |  | 
O=C([CH-]C(=O)C(F)(F)F)c1ccccc1.O=C([CH-]C(=O)C(F)(F)F)c1ccccc1.O=C([CH-]C(=O)C(F)(F)F)c1ccccc1.O=C([CH-]C(=O)C(F)(F)F)c1ccccc1.[Eu+3].c1ccncc1 |  | 64 µM | > 100 µM | 94.8 µM | > 100 µM | 19.7 µM | > 100 µM | 36.2 µM |  | 8.37 µM | 25.6 µM |  |  | 4.26 µM |  |  | 4.33 µM | 4.98 µM | 11.9 µM | 3.86 µM
COC(=O)c1c(-c2ccccc2)sc(-c2cccc3ccccc23)c1C(=O)OC | > 100 µM |  | > 100 µM | > 100 µM | > 100 µM |  | > 100 µM | > 100 µM |  |  |  |  |  |  |  |  |  |  |  | 
C=C=C(C(=O)OC)S(=O)c1ccc([N+](=O)[O-])cc1[N+](=O)[O-] (stereo unspecified) | > 85.7 µM | > 82.5 µM | > 100 µM | > 100 µM | 45.3 µM | 35.4 µM | 36.3 µM | 50.3 µM |  |  |  |  |  |  |  |  |  |  |  | 
CN=C1SC(=Nc2ccc(N(C)C)cc2)N1C | > 100 µM | > 100 µM | > 100 µM | > 100 µM | > 100 µM | > 100 µM | > 100 µM | > 100 µM |  |  |  |  |  |  |  |  |  |  |  | 
CN[C@@H]1C[C@H]2O[C@@](C)([C@@H]1OC)n1c3ccccc3c3c4c(c5c6ccccc6n2c5c31)C(=O)N[C@@H]4O | 0.3 µM and 0.0914 µM | 0.17 µM and 0.334 µM | 0.3 µM and 2.87 µM | 0.161 µM and 0.77 µM | 0.3 µM and 1.33 µM | 0.833 µM | 0.3 µM and 1.88 µM | 0.0981 µM and 0.654 µM | 0.0195 µM and 0.0211 µM | 0.0401 µM | 0.0328 µM |  |  | 0.0228 µM |  | 0.202 µM | 0.0502 µM | 0.0556 µM | 0.147 µM | 
CC(=O)O[C@@H]1C2C(=O)OC(=O)C2C2CCC[C@]23O[C@H]13 (stereo partly specified) | > 100 µM | > 100 µM | > 100 µM | > 100 µM | > 100 µM | > 100 µM | > 100 µM | > 100 µM |  |  |  |  |  |  |  |  |  |  |  | 
CCOC(=O)CC1NC(=O)CS1 (stereo unspecified) | > 100 µM | > 100 µM | > 100 µM | > 100 µM | 45.1 µM |  | 37.4 µM | > 100 µM |  |  |  |  |  |  |  |  |  |  |  | 
